This is an account of results in US8614223B2, “Pyrimidine hydroxy amide compounds as protein deacetylase inhibitors and methods of use thereof” (Acetylon Pharmaceuticals, Inc., priority 2010, dated 2013).

A word on the pIC50: it is the IC50 on a negative log10 scale, so that one unit is a factor of ten.

In one assay the test system is refractory relapsed MM. The settings on record: 202 patients with refractory relapsed MM; cited from earlier work.
Assay [1] concerns the target T1, HDAC6 (Homo sapiens (Human), UniProt Q9UBN7). The experiment in a line: biochemical.
The target of the next assay is HDAC3 (Homo sapiens (Human), UniProt O15379). The experiment in a line: HDAC enzyme assay, HDAC3. The settings on record: for HDAC3 fold over HDAC6 IC50 (selectivity for HDAC6): ratio HDAC3/HDAC6.
The next assay addresses HDAC1 (Homo sapiens (Human), UniProt Q13547). The experiment in a line: HDAC enzyme assay, HDAC1. The conditions noted are these: for HDAC1 fold over HDAC6 IC50 (selectivity for HDAC6): ratio HDAC1/HDAC6.
The next assay concerns the target HDAC2 (Homo sapiens (Human), UniProt Q92769). Briefly: HDAC enzyme assay, HDAC2. The settings on record: for HDAC2 fold over HDAC6 IC50 (selectivity for HDAC6): ratio HDAC2/HDAC6.
The target of assay [2] is T1, HDAC6. The conditions noted are these: read-out: HDAC6 IC50.

pIC50: −log10 of the molar value. Read-outs that look alike come from different tables or passages of the source.

T1 sequence (Q9UBN7 whole entry): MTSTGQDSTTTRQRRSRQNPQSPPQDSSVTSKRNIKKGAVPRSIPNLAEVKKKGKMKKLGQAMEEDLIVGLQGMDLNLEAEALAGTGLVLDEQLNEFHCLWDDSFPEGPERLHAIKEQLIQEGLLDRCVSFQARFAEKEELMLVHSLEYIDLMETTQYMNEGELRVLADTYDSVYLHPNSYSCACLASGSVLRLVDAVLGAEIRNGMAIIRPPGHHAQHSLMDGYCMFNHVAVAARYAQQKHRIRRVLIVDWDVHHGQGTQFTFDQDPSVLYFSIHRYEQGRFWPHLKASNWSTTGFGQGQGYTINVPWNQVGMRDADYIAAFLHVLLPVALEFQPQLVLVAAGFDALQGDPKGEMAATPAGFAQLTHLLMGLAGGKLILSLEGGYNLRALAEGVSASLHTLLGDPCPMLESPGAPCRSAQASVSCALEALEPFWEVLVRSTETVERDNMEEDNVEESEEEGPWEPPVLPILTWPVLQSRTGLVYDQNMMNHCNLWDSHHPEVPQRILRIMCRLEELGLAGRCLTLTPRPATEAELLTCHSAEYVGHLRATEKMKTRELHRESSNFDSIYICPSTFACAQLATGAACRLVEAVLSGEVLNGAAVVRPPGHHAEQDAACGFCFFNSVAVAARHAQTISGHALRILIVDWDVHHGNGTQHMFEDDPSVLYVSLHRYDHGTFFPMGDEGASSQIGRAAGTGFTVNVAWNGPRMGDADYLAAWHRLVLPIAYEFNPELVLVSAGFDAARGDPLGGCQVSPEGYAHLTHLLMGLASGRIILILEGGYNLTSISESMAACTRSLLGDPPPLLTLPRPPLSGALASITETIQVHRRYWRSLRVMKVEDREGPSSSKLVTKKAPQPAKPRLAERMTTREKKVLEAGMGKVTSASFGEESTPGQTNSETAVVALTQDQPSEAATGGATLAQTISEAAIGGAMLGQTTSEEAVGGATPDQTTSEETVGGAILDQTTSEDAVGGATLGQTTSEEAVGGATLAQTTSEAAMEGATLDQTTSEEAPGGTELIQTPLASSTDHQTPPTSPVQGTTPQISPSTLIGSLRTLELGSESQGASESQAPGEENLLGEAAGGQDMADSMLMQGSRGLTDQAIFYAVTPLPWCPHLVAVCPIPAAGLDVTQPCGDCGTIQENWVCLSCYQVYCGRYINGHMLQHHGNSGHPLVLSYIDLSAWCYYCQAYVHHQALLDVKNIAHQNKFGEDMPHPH
Sequence of HDAC2 (Q92769 whole entry): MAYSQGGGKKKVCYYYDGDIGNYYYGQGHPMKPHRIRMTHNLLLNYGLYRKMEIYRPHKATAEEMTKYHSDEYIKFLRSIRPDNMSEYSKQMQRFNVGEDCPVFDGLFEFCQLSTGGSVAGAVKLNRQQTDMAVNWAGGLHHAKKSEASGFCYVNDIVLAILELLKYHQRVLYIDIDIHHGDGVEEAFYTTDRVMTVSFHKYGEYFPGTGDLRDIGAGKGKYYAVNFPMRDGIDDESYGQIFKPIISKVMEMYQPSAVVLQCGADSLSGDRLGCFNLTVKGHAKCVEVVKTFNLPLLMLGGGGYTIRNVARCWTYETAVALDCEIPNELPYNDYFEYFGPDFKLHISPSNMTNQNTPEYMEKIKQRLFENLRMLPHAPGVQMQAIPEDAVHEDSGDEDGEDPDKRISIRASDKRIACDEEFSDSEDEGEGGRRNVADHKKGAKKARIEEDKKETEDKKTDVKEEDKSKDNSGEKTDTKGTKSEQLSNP
Sequence of HDAC3 (O15379 whole entry): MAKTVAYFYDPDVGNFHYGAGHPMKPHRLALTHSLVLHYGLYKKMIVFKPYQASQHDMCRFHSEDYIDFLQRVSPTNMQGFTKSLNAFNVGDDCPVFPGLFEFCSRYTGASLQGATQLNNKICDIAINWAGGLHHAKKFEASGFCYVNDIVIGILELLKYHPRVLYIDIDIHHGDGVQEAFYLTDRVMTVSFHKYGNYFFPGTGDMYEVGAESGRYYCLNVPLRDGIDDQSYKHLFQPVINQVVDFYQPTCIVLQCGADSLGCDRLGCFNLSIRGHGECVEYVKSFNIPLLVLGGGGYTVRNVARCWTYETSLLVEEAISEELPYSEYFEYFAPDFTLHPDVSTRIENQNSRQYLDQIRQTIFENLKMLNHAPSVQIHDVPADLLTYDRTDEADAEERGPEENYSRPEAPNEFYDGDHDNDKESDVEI
Sequence of HDAC3 (Q9Y618 395-489 partner): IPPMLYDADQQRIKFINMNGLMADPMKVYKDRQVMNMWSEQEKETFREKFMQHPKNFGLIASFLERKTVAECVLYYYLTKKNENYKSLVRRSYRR
Sequence of HDAC1 (Q13547 whole entry): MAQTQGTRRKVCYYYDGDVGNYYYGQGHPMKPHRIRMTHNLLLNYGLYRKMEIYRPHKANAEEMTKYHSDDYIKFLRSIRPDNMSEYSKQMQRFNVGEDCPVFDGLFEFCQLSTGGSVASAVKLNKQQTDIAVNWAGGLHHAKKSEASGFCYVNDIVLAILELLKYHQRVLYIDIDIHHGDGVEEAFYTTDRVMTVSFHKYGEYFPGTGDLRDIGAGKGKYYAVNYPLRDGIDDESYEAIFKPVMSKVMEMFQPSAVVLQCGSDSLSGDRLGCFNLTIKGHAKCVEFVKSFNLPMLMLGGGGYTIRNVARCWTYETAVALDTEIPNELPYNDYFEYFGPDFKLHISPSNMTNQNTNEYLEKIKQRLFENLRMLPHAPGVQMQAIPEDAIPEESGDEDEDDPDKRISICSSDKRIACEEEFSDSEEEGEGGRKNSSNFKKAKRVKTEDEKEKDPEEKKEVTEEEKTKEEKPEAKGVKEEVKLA

Turning to `CC(C)C[C@H](NC(=O)[C@H](Cc1ccccc1)NC(=O)c1cnccn1)B(O)O` [bortezomib], in the assay with refractory relapsed MM, the “complete and near complete responses” value is 10%; the “patients did not respond” value is listed as 65%; the responses is on record as 35%.

With `COc1ccc(C2(Nc3ncc(C(=O)NO)cn3)CC2)cc1` [Compound 97], the negative-log IC50 (pIC50) against HDAC6 [1] was 8.70. For the same compound, at HDAC3, the pIC50 is 7.43 and the “HDAC3 fold over HDAC6 IC50 (selectivity for HDAC6)” value is on record as “(16.4x)”. At HDAC1, the pIC50 was 7.72 and the “HDAC1 fold over HDAC6 IC50 (selectivity for HDAC6)” value was “(8.3x)”. In addition, on HDAC2, the negative-log IC50 (pIC50) is 7.55 and the “HDAC2 fold over HDAC6 IC50 (selectivity for HDAC6)” value is “(12.1x)”.

As for `Cc1cc(Nc2ncc(C(=O)NO)cn2)ccn1` [Compound 31], the negative logarithm of the IC50 (pIC50) is 8.00 at HDAC6 [2], 6.66 on HDAC3 (read-out: HDAC3 IC50), 6.69 on HDAC1 (read-out: HDAC1 IC50) and 6.44 on HDAC2 (read-out: HDAC2 IC50). Besides, on HDAC3, the “HDAC3 fold over HDAC6 IC50 (selectivity for HDAC6)” value was “(21.1x)”. For the same compound, the “HDAC1 fold over HDAC6 IC50 (selectivity for HDAC6)” value at HDAC1 is given as “(19.8x)”. At HDAC2, the “HDAC2 fold over HDAC6 IC50 (selectivity for HDAC6)” value is on record as “(34.7x)”.

Take `CC(Nc1ncc(C(=O)NO)cn1)c1ccncc1` (centres unmarked) [Compound 85]: the negative logarithm of the IC50 (pIC50) is 8.40 on HDAC6 [2], 6.87 at HDAC3 (read-out: HDAC3 IC50), 7.17 on HDAC1 (read-out: HDAC1 IC50) and 7.02 on HDAC2 (read-out: HDAC2 IC50). Moreover, at HDAC3, the “HDAC3 fold over HDAC6 IC50 (selectivity for HDAC6)” value is “(36.9x)”. Further, the “HDAC1 fold over HDAC6 IC50 (selectivity for HDAC6)” value at HDAC1 was “(18.1x)”. Further, the “HDAC2 fold over HDAC6 IC50 (selectivity for HDAC6)” value at HDAC2 was “(26.2x)”.

In the case of `O=C(NO)c1cnc(NC2(c3ccc4c(c3)OCO4)CC2)nc1` [Compound 128], the pIC50 on HDAC6 [2] was 8.70; on HDAC3 (read-out: HDAC3 IC50) it was 7.31; at HDAC1 (read-out: HDAC1 IC50) it was 7.80; on HDAC2 (read-out: HDAC2 IC50), 7.77. Besides, the “HDAC3 fold over HDAC6 IC50 (selectivity for HDAC6)” value at HDAC3 is reported as “(24.8x)”. Besides, at HDAC1, the “HDAC1 fold over HDAC6 IC50 (selectivity for HDAC6)” value is “(8.1x)”. On HDAC2, the “HDAC2 fold over HDAC6 IC50 (selectivity for HDAC6)” value is on record as “(8.9x)”.

For `O=C(NO)c1cnc(Nc2cc(F)cc(F)c2)nc1` [Compound 18], the pIC50 was 7.89 on HDAC6 [2], 6.75 at HDAC3 (read-out: HDAC3 IC50), 6.87 at HDAC1 (read-out: HDAC1 IC50) and 6.77 at HDAC2 (read-out: HDAC2 IC50). For the same compound, the “HDAC3 fold over HDAC6 IC50 (selectivity for HDAC6)” value on HDAC3 is “(14.1x)”. The “HDAC1 fold over HDAC6 IC50 (selectivity for HDAC6)” value at HDAC1 is reported as “(10.8x)”. The “HDAC2 fold over HDAC6 IC50 (selectivity for HDAC6)” value on HDAC2 came out at 13.5x).

For `O=C(NO)c1cnc(Nc2cc(Cl)cc(OC(F)(F)F)c2)nc1` [Compound 27], the pIC50 was 8.15 at HDAC6 [2], 6.13 at HDAC3 (read-out: HDAC3 IC50), 6.38 at HDAC1 (read-out: HDAC1 IC50) and 6.15 on HDAC2 (read-out: HDAC2 IC50). Besides, the “HDAC3 fold over HDAC6 IC50 (selectivity for HDAC6)” value on HDAC3 is listed as “(113.5x)”. Moreover, on HDAC1, the “HDAC1 fold over HDAC6 IC50 (selectivity for HDAC6)” value is “(63.5x)”. For the same compound, the “HDAC2 fold over HDAC6 IC50 (selectivity for HDAC6)” value on HDAC2 is on record as “(106.6x)”.

Consider `O=C(NO)c1cnc(NCc2ccccn2)nc1` [Compound 108], for which the pIC50 at HDAC6 [2] is 8.30; on HDAC3 (read-out: HDAC3 IC50) it was 6.45; on HDAC1 (read-out: HDAC1 IC50) it was 6.66; at HDAC2 (read-out: HDAC2 IC50), 6.50. In addition, the “HDAC3 fold over HDAC6 IC50 (selectivity for HDAC6)” value at HDAC3 is given as “(68.3x)”. Moreover, the “HDAC1 fold over HDAC6 IC50 (selectivity for HDAC6)” value on HDAC1 is on record as “(42.1x)”. On HDAC2, the “HDAC2 fold over HDAC6 IC50 (selectivity for HDAC6)” value is “(60.3x)”.

Take `O=C(NO)c1cnc(NC2(c3ccc(F)cc3)CCOCC2)nc1` [Compound 150]: the pIC50 on HDAC6 [2] was 8.30; at HDAC3 (read-out: HDAC3 IC50), 5.75; on HDAC1 (read-out: HDAC1 IC50) it was 6.49; at HDAC2 (read-out: HDAC2 IC50), 6.48. Further, the “HDAC3 fold over HDAC6 IC50 (selectivity for HDAC6)” value on HDAC3 is “(367.7x)”. For the same compound, the “HDAC1 fold over HDAC6 IC50 (selectivity for HDAC6)” value on HDAC1 is given as “(66.1x)”. In addition, the “HDAC2 fold over HDAC6 IC50 (selectivity for HDAC6)” value at HDAC2 was “(68.4x)”.
